# Experimental data as given in the supplement of paper PMC10307832.
# Assays:
# Assay in all cases: relative viability (nuclei count vs DMSO), 5 days (fraction); higher = more cells survive
# [1] = compound: CC[C@@H](C)CNCC(=O)N1CCC2=C([C@@H]1COC3=CC=CC(=C3)C)C=CS2 [RU-SKI 43]
# Procedure, shortened: (§1)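 Lung cancer cell lines in 1536-well plates were exposed by pinning to five library-drug doses (not always all listed) √10 apart, following an overnight hold at 37 °C. MetaXpress counted Hoechst-stained nuclei from 4× images taken after 5 days without medium change. Viability is the median ratio of treated-well to vehicle-well nuclei across plates. Plates required control CV below 25% and at least one doubling.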
# [2] = compound: CCc1c2c(nc3ccc(OC(=O)N4CCC(N5CCCCC5)CC4)cc13)-c1cc3c(c(=O)n1C2)COC(=O)[C@]3(O)CC [Irinotecan]
# Procedure, shortened: as §1
# [3] = compound: Cn1cc(-c2cnc3ccc4ccc(CS(=O)(=O)NCc5ccccn5)cc4c(=O)c3c2)cn1 [MK-8033]
# Procedure, shortened: as §1
# [4] = compound: CCc1c2c(nc3ccc(OC(=O)N4CCC(N5CCCCC5)CC4)cc13)-c1cc3c(c(=O)n1C2)COC(=O)[C@]3(O)CC [Irinotecan] + C[C@@H](Oc1cc(-c2cnn(C3CCNCC3)c2)cnc1N)c1c(Cl)ccc(F)c1Cl [Crizotinib] (partner 1 µM)
# Procedure, shortened: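 After 5 days of treatment, lung cancer cells in 1536-well plates were fixed and stained in a single step (final 0.05% Triton X-100, 1% formaldehyde, 1 ug/ml Hoechst) and their nuclei counted on 4× images. Treatment had been applied by pin tool the day after seeding as one drug alone or as a fixed anchor-drug dose with five library-drug doses (not always all listed) in √10 steps. Relative viability is the nuclei count of treated wells divided by that of vehicle wells, and values are medians of duplicate plates.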
cell line,measurement,setting,value
NCI-H2085,relative viability,[1]; 0.1 µM,0.981
same,relative viability,[1]; 0.3162 µM,1.01
same,relative viability,[1]; 1 µM,1.02
same,relative viability,[1]; 3.162 µM,0.975
same,relative viability,[1]; 10 µM,0.927
same,relative viability,[2]; 0.6325 µM,0.824
same,relative viability,[2]; 2 µM,0.909
same,relative viability,[2]; 6.325 µM,0.75
same,relative viability,[2]; 20 µM,0.529
same,relative viability,[3]; 0.02 µM,0.931
same,relative viability,[3]; 0.06325 µM,0.987
same,relative viability,[3]; 0.2 µM,0.959
same,relative viability,[3]; 0.6325 µM,0.942
same,relative viability,[3]; 2 µM,0.984
same,relative viability,[4]; first compound 0.6325 µM,0.845
same,relative viability,[4]; first compound 2 µM,0.622
same,relative viability,[4]; first compound 6.325 µM,0.511
same,relative viability,[4]; first compound 20 µM,0.537
NCI-H2087,relative viability,[1]; 0.1 µM,1.06
same,relative viability,[1]; 0.3162 µM,1.11
same,relative viability,[1]; 1 µM,1.17
same,relative viability,[1]; 3.162 µM,0.995
same,relative viability,[1]; 10 µM,0.933
same,relative viability,[2]; 0.6325 µM,0.406
same,relative viability,[2]; 2 µM,0.496
same,relative viability,[2]; 6.325 µM,0.187
same,relative viability,[2]; 20 µM,0.203
same,relative viability,[3]; 0.02 µM,1.2
same,relative viability,[3]; 0.06325 µM,1.02
same,relative viability,[3]; 0.2 µM,0.953
same,relative viability,[3]; 0.6325 µM,1.08
same,relative viability,[3]; 2 µM,1.1
same,relative viability,[4]; first compound 0.6325 µM,0.476
same,relative viability,[4]; first compound 2 µM,0.396
same,relative viability,[4]; first compound 6.325 µM,0.259
same,relative viability,[4]; first compound 20 µM,0.203
NCI-H2126,relative viability,[1]; 0.1 µM,1.01
same,relative viability,[1]; 0.3162 µM,0.99
same,relative viability,[1]; 1 µM,1.05
same,relative viability,[1]; 3.162 µM,1.04
same,relative viability,[1]; 10 µM,0.985
same,relative viability,[2]; 2 µM,1.07
same,relative viability,[2]; 6.325 µM,0.552
same,relative viability,[2]; 20 µM,0.387
same,relative viability,[3]; 0.02 µM,0.978
same,relative viability,[3]; 0.06325 µM,0.901
same,relative viability,[3]; 0.2 µM,0.911
same,relative viability,[3]; 0.6325 µM,0.976
same,relative viability,[3]; 2 µM,1.02
same,relative viability,[4]; first compound 2 µM,0.58
same,relative viability,[4]; first compound 6.325 µM,0.361
same,relative viability,[4]; first compound 20 µM,0.354
NCI-H2170,relative viability,[1]; 0.1 µM,0.977
same,relative viability,[1]; 0.3162 µM,1.06
same,relative viability,[1]; 1 µM,1.01
same,relative viability,[1]; 3.162 µM,1.04
same,relative viability,[1]; 10 µM,0.986
same,relative viability,[2]; 0.6325 µM,0.959
same,relative viability,[2]; 2 µM,0.946
same,relative viability,[2]; 6.325 µM,0.462
same,relative viability,[2]; 20 µM,0.223
same,relative viability,[3]; 0.02 µM,0.991
same,relative viability,[3]; 0.06325 µM,0.925
same,relative viability,[3]; 0.2 µM,0.918
same,relative viability,[3]; 0.6325 µM,0.948
same,relative viability,[3]; 2 µM,0.971
same,relative viability,[4]; first compound 0.6325 µM,1.1
same,relative viability,[4]; first compound 2 µM,0.588
same,relative viability,[4]; first compound 6.325 µM,0.309
same,relative viability,[4]; first compound 20 µM,0.186
NCI-H2228,relative viability,[1]; 0.1 µM,0.937
same,relative viability,[1]; 0.3162 µM,1.27
same,relative viability,[1]; 1 µM,1.31
same,relative viability,[1]; 3.162 µM,1.01
same,relative viability,[1]; 10 µM,0.601
same,relative viability,[2]; 0.6325 µM,0.706
same,relative viability,[2]; 2 µM,0.868
same,relative viability,[2]; 6.325 µM,0.484
same,relative viability,[2]; 20 µM,0.409
same,relative viability,[3]; 0.02 µM,1.03
same,relative viability,[3]; 0.06325 µM,0.839
same,relative viability,[3]; 0.2 µM,0.878
same,relative viability,[3]; 0.6325 µM,1.06
same,relative viability,[3]; 2 µM,0.89
same,relative viability,[4]; first compound 0.6325 µM,0.597
same,relative viability,[4]; first compound 2 µM,0.518
same,relative viability,[4]; first compound 6.325 µM,0.39
same,relative viability,[4]; first compound 20 µM,0.433
NCI-H2347,relative viability,[1]; 0.1 µM,0.978
same,relative viability,[1]; 0.3162 µM,1.09
same,relative viability,[1]; 1 µM,1.1
same,relative viability,[1]; 3.162 µM,0.97
same,relative viability,[1]; 10 µM,0.967
same,relative viability,[2]; 0.6325 µM,0.789
same,relative viability,[2]; 2 µM,0.83
same,relative viability,[2]; 6.325 µM,0.483
same,relative viability,[2]; 20 µM,0.495
same,relative viability,[3]; 0.02 µM,1.02
same,relative viability,[3]; 0.06325 µM,1.02
same,relative viability,[3]; 0.2 µM,0.984
same,relative viability,[3]; 0.6325 µM,1.03
same,relative viability,[3]; 2 µM,1.04
same,relative viability,[4]; first compound 0.6325 µM,0.571
same,relative viability,[4]; first compound 2 µM,0.476
same,relative viability,[4]; first compound 6.325 µM,0.556
same,relative viability,[4]; first compound 20 µM,0.494
NCI-H2405,relative viability,[1]; 0.1 µM,0.996
same,relative viability,[1]; 0.3162 µM,0.977
same,relative viability,[1]; 1 µM,1.05
same,relative viability,[1]; 3.162 µM,0.96
same,relative viability,[1]; 10 µM,0.967
same,relative viability,[2]; 2 µM,0.953
same,relative viability,[2]; 6.325 µM,0.426
same,relative viability,[2]; 20 µM,0.217
same,relative viability,[3]; 0.02 µM,1.02
same,relative viability,[3]; 0.06325 µM,0.944
same,relative viability,[3]; 0.2 µM,0.94
same,relative viability,[3]; 0.6325 µM,1.02
same,relative viability,[3]; 2 µM,1.01
same,relative viability,[4]; first compound 0.6325 µM,0.788
same,relative viability,[4]; first compound 2 µM,0.779
same,relative viability,[4]; first compound 6.325 µM,0.355
same,relative viability,[4]; first compound 20 µM,0.274
